The record followed here is patent US12065494B2, “Combination therapy comprising an FGFR inhibitor and a Nectin-4 targeting agent” (Incyte Corporation, priority 2021, dated 2024).

The test system of assay [1] is Nectin-4. As to the kind of experiment: RT112/84 in vitro Nectin-4 receptor density (flow cytometry). The class given is cell-based. As to conditions: RT112/84 cells; 100 nM pemigatinib, 100 nM EV or both; different time points after treatment. The protocol: The effect of combining pemigatinib plus enfortumab vedotin (“EV”) (Padcev, Refdrug Inc.) on Nectin-4 receptor density was assessed in vitro in the RT112/84 bladder cancer cell line. Briefly, RT112/84 cells were treated with either 100 nM pemigatinib, 100 nM EV, or the combination of both. The receptor density of Nectin-4 was then assessed by flow cytometry upon a LSRFortessa X-20 instrument (BD Biosciences) with Quantibrite phycoerythrin (PE) beads (BD Biosciences Cat No 340495) using an anti-Nectin-4 PE conjugated antibody (RnD Systems Cat No FAB2659) at different time points after treatment (FIG. 2A).

In assay [2] the test system is Nectin-4. As to the kind of experiment: RT112/84 in vivo Nectin-4 receptor density (xenograft, flow cytometry). As to conditions: RT112/84 tumor bearing NSG mice; pemigatinib 0.3 or 1 mg/kg oral, EV 3 mg/kg intravenous; tumors collected 4 h post dose.
Method: The effect of combining pemigatinib plus EV (Padcev, Refdrug Inc.) on Nectin-4 receptor density was also assessed in vivo in the RT112/84 bladder cancer xenograft model (FIG. 2B) in 6 to 8 weeks old NSG mice (Jackson laboratories). Pemigatinib was suspended in 5% N,N-dimethyl acetamide (DMAC)+50 mM Citrate buffer in 0.5% methyl cellulose for oral administration and EV was suspended in saline for intravenous administration. Briefly, the left flanks of the mice were shaved the day prior to subcutaneous inoculation with 2×10^6 RT112/84 suspended in matrigel (Corning Life Sciences, Tewksbury, Mass.). On day 16, mice were dosed with (i) vehicle; (ii) 0.3 mg/kg of pemigatinib; (iii) 1 mg/kg of pemigatinib; (iv) 3 mg/kg of EV; (v) 0.3 mg/kg of pemigatinib and 3 mg/kg of EV; or (vi) 1 mg/kg of pemigatinib and 3 mg/kg of EV, and tumors were collected 4 h post dose.
The next assay relates to ERK. As to the kind of experiment: RT112/84 in vivo pERK inhibition (tumor lysates, MSD). As to conditions: RT112/84 tumor bearing NSG mice; pemigatinib 1 mg/kg oral, EV 3 mg/kg intravenous; tumors collected 4 h post dose. The method, then:
Tumors were then processed and levels of phospho ERK were assessed on tumor lysates by MSD (Mesoscale).

Assay [3] concerns RT112/84 bladder cancer xenograft model. As to the kind of experiment: RT112/84 xenograft model, tumor growth (6 groups). It is filed as in vivo, mice.
Method: The in vivo effect of combining pemigatinib plus EV (Padcev, Refdrug Inc.) was assessed in the RT112/84 bladder cancer (85061106, Sigma/ECACC, UK) xenograft model (FIG. 4) in 6 to 8 weeks old NSG mice (Jackson laboratories). Pemigatinib was suspended in 5% N,N-dimethyl acetamide (DMAC)+50 mM Citrate buffer in 0.5% methyl cellulose for oral administration and EV was suspended in saline for intravenous administration. Briefly, the left flank of the mice were shaved the day prior to subcutaneous inoculation with 2×10^6 RT112/84 suspended in matrigel (Corning Life Sciences, Tewksbury, Mass.). On day 7, tumor dimensions were measured by Vernier calipers, and volume estimated by the formula Volume=[L (long dimension)×W2 (short dimension)]/2. Mice were randomized into 6 groups of 10 mice of approximate mean volume (˜200 mm^3). Tumors were measured 3 times per week for the duration of the study. Starting day 7, mice were dosed with (i) vehicle; (ii) 0.3 mg/kg of pemigatinib; (iii) 1 mg/kg of pemigatinib; (iv) 3 mg/kg of EV; (v) 0.3 mg/kg of pemigatinib and 3 mg/kg of EV; or (vi) 1 mg/kg of pemigatinib and 3 mg/kg of EV. Pemigatinib was administered orally once daily (QD) for 10 days, while EV was dosed every 4 days (for a total of 2 doses).
The subject of assay [4] is UM-UC-14 cancer xenograft model. As to the kind of experiment: UM-UC-14 xenograft model, tumor growth. The class given is in vivo, mice. As to conditions: single agent.
The mark [5] stands for this setting: pemigatinib 0.3 mg/kg oral QD for 10 days.
Where [6] appears, read: pemigatinib 1 mg/kg oral QD for 10 days.

With `CCN1C(=O)N(c2c(F)c(OC)cc(OC)c2F)Cc2cnc3[nH]c(CN4CCOCC4)cc3c21` [pemigatinib, 3-(2,6-difluoro-3,5-dimethoxyphenyl)-1-ethyl-8-(morpholin-4-ylmethyl)-1,3,4,7-tetrahydro-2H-pyrrolo[3′,2′:5,6]pyrido[4,3-d]pyrimidin-2-one], the Nectin-4 receptor density entry in the assay on Nectin-4 [1] is given as “did not induce changes in Nectin-4 receptor density”. Moreover, the “Nectin-4 receptor density in tumor cells” value in the assay with Nectin-4 [2] is recorded as “did not induce changes in Nectin-4 receptor density”. The “phosphorylation of ERK in tumor” value in the assay with ERK is reported as “decrease phosphorylation of ERK”. In addition, the “therapeutic effect in delaying tumor growth vs vehicle” value in assay [3] (setting [5]) is recorded as “all the treatments, with the exemption of pemigatinib 0.3 mg/kg, had a therapeutic effect”; in assay [3] (setting [6]), “had a therapeutic effect in delaying tumor growth”; in assay [4] (setting [5]), “only pemigatinib 1 mg/kg treatment had a therapeutic effect”; in assay [4] (setting [6]), “had a therapeutic effect in delaying tumor growth as single agent”.
